Data set [1] in a line: Stability test in liver microsomes. In kind it is in vitro ADME. To be noted: Human liver microsomes, 0.5 mg/mL, 1.0 µM substrate. Here is the method: Phase I metabolic stability of the test compounds in liver microsomes of CD-1 mice, Sprague-Dawley rats, and humans was assessed.
The animal and human liver microsomes used in the test system were purchased from Xenotech, Corning, or other qualified suppliers and stored in a freezer at a temperature below -60 °C prior to use. The information of the animal and human liver microsomes used was as follows:
The test samples and the reference compounds were separately incubated with animal and human liver microsomes at 37±1 °C for a period of incubation time of up to 60 min. The samples were taken out at the indicated time points, and the reaction was stopped with acetonitrile or another organic solvent containing an internal standard. After centrifugation, the resulting supernatants were assayed by the liquid chromatography-tandem mass spectrometry (LC-MS/MS) method.
Microsomes of each species were diluted into a 2× working solution with a 100 mM potassium phosphate buffer. […]
Incubation was performed in a 96-well plate. Eight incubation plates were prepared and designated T0, T5, T15, T30, T45, T60, Blank60, and NCF60, respectively. The first 6 plates corresponded to reaction time points of 0 min, 5 min, 15 min, 30 min, 45 min, and 60 min, respectively. No test sample or reference compound was added to the Blank60 plate, and samples were taken after 60 min of incubation. In the NCF60 plate, incubation was performed for 60 min using the potassium phosphate buffer instead of the NADPH regeneration system solution. Three replicates were made for samples in all conditions.
The microsomes and the test sample or reference compound were mixed, and then the incubation plates Blank60, T5, T15, T30, T45, and T60 except for T0 and NCF60 were placed in a 37 °C water bath for pre-incubation for about 10 min. In the incubation plate T0, a stop solution was first added, followed by the addition of the NADPH regeneration system working solution, and 98 µL of the potassium phosphate buffer was added to each sample well of the incubation plate NCF60 to initiate the reaction. After the pre-incubation of the incubation plates Blank60, T5, T15, T30, T45, and T60 was completed, 98 µL of the NADPH regeneration system working solution was added to each sample well to initiate the reaction. The reaction temperature was 37±1 °C, the final volume of the reaction was 200 µL, and the reaction system included 0.5 mg/mL microsomes, 1.0 µM substrate, 1 mM NADP, 6 mM ISO, and 1 unit/mL IDH.
At 5 min, 15 min, 30 min, 45 min, and 60 min, a cold stop solution containing an internal standard was added to the reaction plate to stop the reaction.
All the reaction plates after the reaction was stopped were shaken well and centrifuged at 3220× g at 4 °C for 20 min. After the supernatant was diluted at a certain ratio, LC-MS/MS analysis was performed.
Sample analysis was performed by the liquid chromatography-tandem mass spectrometry (LC-MS/MS) method without standard curves and quality control samples. Semi-quantitative determination was performed according to the ratio of the analyte peak area to the internal standard peak area. The retention times of the analyte and internal standard, the chromatogram acquisition, and chromatogram integration were processed using the Analyst software (Sciex, Framingham, Massachusetts, USA).
According to the well stir model, the hepatic intrinsic clearance and hepatic clearance can be converted through the following formula. CL(liver) = (CLint(liver)×Qh)/(CLint(liver)+Qh) [formula]

Data set [2] can be described thus: Saturated solubility in FaSSIF solution. It counts as physicochemical. As to conditions: room temperature, stirred overnight. As for the experimental part:
Efficacy Experimental Example 9: Test of Saturated Solubility of Samples in FaSSIF Solution
About 0.21 g of sodium hydroxide, about 2.24 g of sodium dihydrogen phosphate dihydrate, and 3.09 g of sodium chloride were weighed out and dissolved in 500 mL of water, and after dissolution, the pH was adjusted to 6.5 with 1 N sodium hydroxide or 1 N hydrochloric acid.
112 mg of FaSSIF solid was weighed out and placed in a 50 mL volumetric flask, and the buffer described above was added for dissolution. The resulting solution was diluted to volume, mixed well, and left to stand at room temperature for 2 h or more.
Test sample: About 1 mg of the test sample was taken, and 1 mL of FaSSIF solution was added. The mixture was stirred at room temperature overnight and centrifuged, and the supernatant was collected and injected for analysis.
Reference sample solution: About 1.5 mg of the test sample was precisely weighed out and placed in a 50 mL volumetric flask, and DMF was added for dissolution. The resulting solution was diluted to volume and mixed well.
The peak of the main component of the reference sample and the peak of the test sample with the same retention time were integrated, and the concentration thereof in the FaSSIF solution was calculated according to the external standard method.

For another data set, the system named is MSTO-211H cells. Description: Pharmacodynamic test, MSTO-211H subcutaneous xenograft. In kind it is in vivo, nude mice (BALB/c nu/nu). To be noted: MSTO-211H xenograft. Here is the method:
Healthy female nude mice (BALB/c nu/nu) aged 6-8 weeks were housed in an SPF environment in accordance with animal ethical guidelines. The well-growing 5M MSTO-211H cells were harvested through trypsin digestion, washed in phosphate-buffered saline (PBS), and then resuspended in PBS containing 50% matrigel (BD Biosciences).
Subcutaneous injection was then performed at the dorsolateral sites of the mice, and the tumor volume was measured once every three days thereafter. When the tumor volume reached around 150-200 mm^3, the mice were randomly assigned to different treatment groups. Any one of the compounds described herein was prepared accordingly and administered at an appropriate dose. Finally, the tumor growth in the nude mice was analyzed after 4 to 6 weeks based on the growth of the tumors.

Turning to `CP(C)(=O)c1ccc2c(c1)c1ccccc1n2-c1ccc(C(F)(F)F)cc1` [Example 1], the half-life at 1 µM in data set [1] was more than 2.42 h. Further, in data set [2], the “FaSSIF(pH = 6.5)” value is reported as more than 950.5 ug/mL.

With `CP(C)(=O)c1ccc2c(c1)c1cccnc1n2-c1ccc(C(F)(F)F)cc1` [Example 5], in data set [2], the “FaSSIF(pH = 6.5)” value turned out to be 781.7 ug/mL.

In data set [1], `CP(C)(=O)c1ccc2c(Oc3ccc(C(F)(F)F)cc3)cccc2c1` [Example 7] gave a half-life at 1 µM of more than 2.42 h. The TGI with MSTO-211H cells (25mpk QD) came to 25mpk QD TGI = 107.93%. Besides, the “FaSSIF(pH = 6.5)” value in data set [2] is reported as 1499.5 ug/mL.

`Cn1cnc(-c2cc(P(C)(C)=O)cnc2Nc2ccc(C(F)(F)F)cc2)c1` [Example 8] registered a half-life at 1 µM in data set [1] of more than 2.42 h. Besides, the TGI in the data set on MSTO-211H cells (50mpk QD) amounted to 50mpk QD TGI = 104.28%. Moreover, in data set [2], the “FaSSIF(pH = 6.5)” value was 433.97 ug/mL.

In data set [1], `CP(C)(=O)c1ccc(Nc2ccc(C(F)(F)F)cc2)c(-c2ccccn2)c1` [Example 10] gave a half-life at 1 µM of more than 2.42 h. Moreover, the “FaSSIF(pH = 6.5)” value in data set [2] is 89.75 ug/mL.

Consider `CP(C)(=O)c1ccc(Nc2ccc(C(F)(F)F)cc2)c(-c2ncccn2)c1` [Example 12], for which, in data set [1], the half-life at 1 µM was more than 2.42 h.

For `Cn1cnc(-c2cc(P(C)(C)=O)ccc2Nc2ccc(C(F)(F)F)cc2)c1` [Example 14], the half-life at 1 µM in data set [1] was more than 2.42 h. Besides, the TGI in the data set with MSTO-211H cells (50mpk QD) is 50mpk QD TGI = 100.43%; in the data set with MSTO-211H cells (150mpk QD), 150mpk QD TGI = 118.27%. Further, the “FaSSIF(pH = 6.5)” value in data set [2] came out at 674.6 ug/mL.

`CP(C)(=O)c1cnc(Nc2ccc(C(F)(F)F)cc2)c(-c2cn3c(n2)CCC3)c1` [Example 22]: the half-life at 1 µM in data set [1] was more than 2.42 h. For the same compound, the TGI in the data set with MSTO-211H cells (150mpk QD) is on record as 150mpk QD TGI = 102.62%. Further, in data set [2], the “FaSSIF(pH = 6.5)” value worked out at 337.6 ug/mL.

Consider `Cc1ccc(Oc2ccc(C(F)(F)F)cc2)c2ccc(P(C)(C)=O)cc12` [Example 24], for which the half-life at 1 µM in data set [1] is 2.77 h. The “FaSSIF(pH = 6.5)” value in data set [2] is on record as 193.3 ug/mL.

The record behind these values is patent EP4596561A1, “PHOSPHORUS-CONTAINING COMPOUND, PHARMACEUTICAL COMPOSITION AND USE THEREOF” (Suzhou Genhouse Bio Co., Ltd., priority 2022, dated 2024).
